Source: patent publication US20130040882A1, “USE OF FIBROBLAST GROWTH FACTOR FRAGMENTS” (NOVARTIS AG, priority 2003, published 2013)

Test system: uterine gene expression
Test: Gene expression profiling (HGU133A) in the uterus of ovariectomized monkeys treated with estradiol, tamoxifen or raloxifene
Format: in vivo, cynomolgus monkeys (Macaca fascicularis)

CC/C(=C(\c1ccccc1)c1ccc(OCCN(C)C)cc1)c1ccccc1 [tamoxifen]
2.7 fold: Uterine expression increase: insulin-like GF binding protein 2 (36 kDa) (compared with OVX controls) | Fold change relative to OVX: Insulin-like growth factor binding protein 2, 36 kda (uterus, OVX monkeys)
1.6 fold: Fold change relative to OVX: Cysteine-rich, angiogenic inducer, 61 (uterus, OVX monkeys) | Fold change relative to OVX: Cytochrome c oxidase subunit viia polypeptide 2 (liver) (uterus, OVX monkeys) | Fold change relative to OVX: G1 to S phase transition 1 (uterus, OVX monkeys) | Fold change relative to OVX: Matrix metalloproteinase 19 (uterus, OVX monkeys) | Fold change relative to OVX: Phosphatase and tensin homolog (mutated in multiple advanced cancers 1) (uterus, OVX monkeys) | Fold change relative to OVX: Procollagen-proline, 2-oxoglutarate 4-dioxygenase (proline 4-hydroxylase), alpha polypeptide II (uterus, OVX monkeys)
0.6 fold: Fold change relative to OVX: Mitogen-activated protein kinase kinase kinase kinase 4 (uterus, OVX monkeys) | Fold change relative to OVX: Thioredoxin interacting protein (uterus, OVX monkeys) | Fold change relative to SHAM control: Collagen, type V, alpha 1 (uterus, OVX monkeys)
0.9 fold: Fold change relative to SHAM control: Calcium channel, voltage-dependent, beta 2 subunit (uterus, OVX monkeys) | Fold change relative to SHAM control: Cysteine-rich, angiogenic inducer, 61 (uterus, OVX monkeys)
3.2 fold: Uterine expression increase: collagen type IV alpha 1 (compared with OVX controls) | Fold change relative to OVX: Cadherin 11, type 2, OB-cadherin (osteoblast) (uterus, OVX monkeys)
2.2 fold: Fold change relative to OVX: Collagen, type IV, alpha 2 (uterus, OVX monkeys) | Fold change relative to OVX: Heparan sulfate proteoglycan 2 (perlecan) (uterus, OVX monkeys) | Fold change relative to OVX: Secreted frizzled-related protein 1 (uterus, OVX monkeys) | Fold change relative to OVX: Secreted protein, acidic, cysteine-rich (osteonectin) (uterus, OVX monkeys) | Fold change relative to OVX: Serine (or cysteine) proteinase inhibitor, clade H (heat shock protein 47), member 1, (collagen binding protein 1) (uterus, OVX monkeys) | Fold change relative to OVX: Solute carrier family 25 (mitochondrial carrier; adenine nucleotide translocator), member 5 (uterus, OVX monkeys) | Fold change relative to OVX: Transforming growth factor, beta-induced, 68 kda (uterus, OVX monkeys)
3.8 fold: Fold change relative to OVX: Tenascin C (hexabrachion) (uterus, OVX monkeys)
2.1 fold: Fold change relative to OVX: ATPase, Na+/K+ transporting, beta 3 polypeptide (uterus, OVX monkeys) | Fold change relative to SHAM control: Chondroitin sulfate proteoglycan 2 (versican) (uterus, OVX monkeys)
1.5 fold: Fold change relative to OVX: Histone H2A.F/Z variant (uterus, OVX monkeys) | Fold change relative to OVX: Integrin, beta 5 (uterus, OVX monkeys) | Fold change relative to OVX: Intercrine-alpha, mrna sequence (uterus, OVX monkeys) | Fold change relative to OVX: Testis Enhanced Gene Transcript (Bax Inhibitor 1) (uterus, OVX monkeys) | Fold change relative to SHAM control: Catenin (cadherin-associated protein), alpha-like 1 (uterus, OVX monkeys)
3.5 fold: Uterine expression increase: collagen type 1 alpha1 (compared with OVX controls) | Fold change relative to OVX: Collagen, type I, alpha 1 (uterus, OVX monkeys)
1.1 fold: Fold change relative to OVX: Wingless-type MMTV integration site family, member 16 (uterus, OVX monkeys) | Fold change relative to SHAM control: Chloride intracellular channel 4 (uterus, OVX monkeys) | Fold change relative to SHAM control: Collagen, type VI, alpha 3 (uterus, OVX monkeys) | Fold change relative to SHAM control: Collagen, type VIII, alpha 2 (uterus, OVX monkeys) | Fold change relative to SHAM control: Fibulin 1 (uterus, OVX monkeys) | Fold change relative to SHAM control: Four and a half LIM domains 2 (uterus, OVX monkeys)
3.4 fold: Uterine expression increase: collagen type III alpha 1 (compared with OVX controls)
2.0 fold: Fold change relative to OVX: Biglycan (uterus, OVX monkeys) | Fold change relative to OVX: Collagen, type VI, alpha 3 (uterus, OVX monkeys) | Fold change relative to OVX: Fibroblast growth factor 2 (basic) (uterus, OVX monkeys) | Fold change relative to OVX: Insulin-like growth factor binding protein 5 (uterus, OVX monkeys) | Fold change relative to SHAM control: Cyclin D1 (PRAD1: parathyroid adenomatosis 1) (uterus, OVX monkeys)
downregulated: Uterine expression of the remaining signal transduction genes examined (tamoxifen: except for LDL receptor adaptor protein)
2.9 fold: Fold change relative to OVX: Chondroitin sulfate proteoglycan 2 (versican) (uterus, OVX monkeys) | Fold change relative to OVX: LIM and senescent cell antigen-like domains 1 (uterus, OVX monkeys) | Fold change relative to OVX: Secreted frizzled-related protein 4 (uterus, OVX monkeys)
4.5 fold: Fold change relative to OVX: Progesterone receptor (uterus, OVX monkeys)
1.8 fold: Fold change relative to OVX: Collagen, type VIII, alpha 2 (uterus, OVX monkeys) | Fold change relative to OVX: Cyclin D1 (PRAD1: parathyroid adenomatosis 1) (uterus, OVX monkeys) | Fold change relative to OVX: Dermatopontin (uterus, OVX monkeys) | Fold change relative to OVX: Solute carrier family 22 (organic cation transporter), member 1-like (uterus, OVX monkeys)
0.5 fold: Fold change relative to OVX: Calcium channel, voltage-dependent, beta 2 subunit (uterus, OVX monkeys)
only modest changes: Uterine expression changes: IGFBP 5, latent TGF beta binding protein 1, cysteine-rich angiogenic inducer 61 (cynomolgus monkey, in vivo)
1.2 fold: Fold change relative to OVX: ATPase, H+ transporting, lysosomal 38 kda, V0 subunit d isoform 1 (uterus, OVX monkeys) | Fold change relative to OVX: Dishevelled associated activator of morphogenesis 1 (uterus, OVX monkeys) | Fold change relative to OVX: LDL receptor adaptor protein (uterus, OVX monkeys) | Fold change relative to SHAM control: ATPase, Na+/K+ transporting, beta 3 polypeptide (uterus, OVX monkeys) | Fold change relative to SHAM control: Chitinase 3-like 1 (cartilage glycoprotein-39) (uterus, OVX monkeys) | Fold change relative to SHAM control: Cytochrome c oxidase subunit via polypeptide 1 (uterus, OVX monkeys)
1.4 fold: Fold change relative to OVX: Laminin, beta 1 (uterus, OVX monkeys) | Fold change relative to OVX: Phospholipid transfer protein (uterus, OVX monkeys) | Fold change relative to OVX: Stem cell growth factor; lymphocyte secreted C-type lectin (uterus, OVX monkeys) | Fold change relative to OVX: Ubiquinol-cytochrome c reductase, Rieske iron-sulfur polypeptide 1 (uterus, OVX monkeys)
0.7 fold: Fold change relative to OVX: Catenin (cadherin-associated protein), alpha-like 1 (uterus, OVX monkeys) | Fold change relative to SHAM control: Biglycan (uterus, OVX monkeys)
2.3 fold: Fold change relative to OVX: Procollagen C-endopeptidase enhancer (uterus, OVX monkeys)
1.7 fold: Fold change relative to OVX: Chitinase 3-like 1 (cartilage glycoprotein-39) (uterus, OVX monkeys) | Fold change relative to OVX: Four and a half LIM domains 2 (uterus, OVX monkeys) | Fold change relative to OVX: H2A histone family, member Y (uterus, OVX monkeys) | Fold change relative to OVX: Osteoglycin (osteoinductive factor, mimecan) (uterus, OVX monkeys) | Fold change relative to OVX: Peroxiredoxin 1 (uterus, OVX monkeys) | Fold change relative to OVX: Protein tyrosine kinase 9 (uterus, OVX monkeys) | Fold change relative to SHAM control: Cytochrome c oxidase subunit viia polypeptide 2 (liver) (uterus, OVX monkeys)
3.1 fold: Fold change relative to OVX: CDC28 protein kinase regulatory subunit 2 (uterus, OVX monkeys)
2.6 fold: Fold change relative to OVX: Latent transforming growth factor beta binding protein 1 (uterus, OVX monkeys)
1.9 fold: Fold change relative to OVX: Chloride intracellular channel 4 (uterus, OVX monkeys) | Fold change relative to OVX: Fibulin 1 (uterus, OVX monkeys) | Fold change relative to OVX: Growth associated protein 43 (uterus, OVX monkeys) | Fold change relative to OVX: Nidogen (enactin) (uterus, OVX monkeys) | Fold change relative to OVX: Pituitary tumour-transforming 1 interacting protein (uterus, OVX monkeys) | Fold change relative to OVX: SET domain, bifurcated 1 (uterus, OVX monkeys) | Fold change relative to OVX: Wingless-type MMTV integration site family, member 2B (uterus, OVX monkeys) | Fold change relative to SHAM control: CDC28 protein kinase regulatory subunit 2 (uterus, OVX monkeys) | Fold change relative to SHAM control: Cadherin 11, type 2, OB-cadherin (osteoblast) (uterus, OVX monkeys)
0.8 fold: Fold change relative to SHAM control: Dishevelled associated activator of morphogenesis 1 (uterus, OVX monkeys)
1.3 fold: Fold change relative to OVX: Collagen, type V, alpha 1 (uterus, OVX monkeys) | Fold change relative to OVX: Cytochrome c oxidase subunit via polypeptide 1 (uterus, OVX monkeys) | Fold change relative to OVX: SPARC-like 1 (mast9, hevin) (uterus, OVX monkeys) | Fold change relative to SHAM control: Collagen, type I, alpha 1 (uterus, OVX monkeys) | Fold change relative to SHAM control: Collagen, type IV, alpha 2 (uterus, OVX monkeys) | Fold change relative to SHAM control: G1 to S phase transition 1 (uterus, OVX monkeys)
6.1 fold: Uterine expression increase: Collagen type 1 alpha 2 (compared with OVX controls)
1.0 fold: Fold change relative to SHAM control: ATPase, H+ transporting, lysosomal 38 kda, V0 subunit d isoform 1 (uterus, OVX monkeys) | Fold change relative to SHAM control: Dermatopontin (uterus, OVX monkeys) | Fold change relative to SHAM control: Fibroblast growth factor 2 (basic) (uterus, OVX monkeys)
